Test results taken from publication PMC12511196 (European Journal of Clinical Pharmacology, 2025).

What was measured:
CYP2D6 = settings: cited from earlier work
serotonin reuptake = settings: cited from earlier work
[1] = cited from earlier work
[2] = cited from earlier work; remark: listed apart in the source
[3] = Treatment switch from fluoxetine to an alternative antidepressant (proxy for therapeutic failure) by CYP2D6 phenotype; type: in vivo, human; settings: adult patients; for Switch to alternative antidepressant, Frequency (%): within one year after last fluoxetine measurement
Excerpt: Consequently, an antidepressant switch was used as a proxy marker for therapeutic failure, regardless of the cause.
IBM SPSS Statistics version 28.0.1.1 (SPSS Inc, Chicago, IL) was used for statistical analysis and graphical presentations. Continuous variables were reported as median (range). The associations between CYP2D6 phenotype and pharmacokinetic measures such as absolute concentrations, C/D ratios and metabolic ratios were examined using Kruskal–Wallis test followed by Bonferroni-corrected Dunn’s test using CYP2D6 NMs as reference group. […] A p value below 0.05 was considered statistically significant.

SMILES	Type of CYP2D6 inhibition (CYP2D6)	Potency as SSRI relative to R-norfluoxetine (serotonin reuptake)	Elimination half-life [1]	Distribution to the brain [2]	Switch to alternative antidepressant where genotyping was not performed within the switch period, Frequency (%) ([3]; CYP2D6 IMs (n = 347))	Switch to alternative antidepressant where genotyping was not performed within the switch period, Frequency (%) ([3]; CYP2D6 NMs (n = 587))	Switch to alternative antidepressant where genotyping was not performed within the switch period, Frequency (%) ([3]; CYP2D6 PMs (n = 68))	Switch to alternative antidepressant where genotyping was not performed within the switch period, Frequency (%) ([3]; CYP2D6 UMs (n = 25))	Switch to alternative antidepressant where genotyping was not performed within the switch period, Frequency (%) ([3]; Total (n = 1027))	Switch to alternative antidepressant, Frequency (%) ([3]; CYP2D6 IMs (n = 347))	Switch to alternative antidepressant, Frequency (%) ([3]; CYP2D6 NMs (n = 587))	Switch to alternative antidepressant, Frequency (%) ([3]; CYP2D6 PMs (n = 68))	Switch to alternative antidepressant, Frequency (%) ([3]; CYP2D6 UMs (n = 25))	Switch to alternative antidepressant, Frequency (%) ([3]; Total (n = 1027))
NCCC(Oc1ccc(C(F)(F)F)cc1)c1ccccc1 (stereo not drawn) [norfluoxetine]	competitive and reversible inhibitors	–	–	–	–	–	–	–	–	–	–	–	–	–
NCC[C@H](Oc1ccc(C(F)(F)F)cc1)c1ccccc1 [S-norfluoxetine]	–	approximately 20 times	–	–	–	–	–	–	–	–	–	–	–	–
CNCCC(Oc1ccc(C(F)(F)F)cc1)c1ccccc1 (stereo not drawn) [fluoxetine]	competitive and reversible inhibitors	–	one to four	more distributed to the brain than norfluoxetine	6.3%	6.6%	10.3%	12.0%	6.9%	8.6%	8.3%	19.1%	24.0%	9.5%
